Test results from patent US20130040882A1, “USE OF FIBROBLAST GROWTH FACTOR FRAGMENTS” (NOVARTIS AG, priority 2003, published 2013).

Test system: uterine gene expression
Assay: Gene expression profiling (HGU133A) in the uterus of ovariectomized monkeys treated with estradiol, tamoxifen or raloxifene
Assay type: in vivo, cynomolgus monkeys (Macaca fascicularis)

With `CC/C(=C(\c1ccccc1)c1ccc(OCCN(C)C)cc1)c1ccccc1` [tamoxifen] the “Uterine expression increase: Collagen type 1 alpha 2” value (compared with OVX controls) was 6.1 fold, the “Uterine expression increase: collagen type 1 alpha1” value (compared with OVX controls) was 3.5 fold and the “Uterine expression increase: collagen type III alpha 1” value (compared with OVX controls) was 3.4 fold. For the same compound, the “Uterine expression increase: collagen type IV alpha 1” value (compared with OVX controls) was 3.2 fold, the “Uterine expression increase: insulin-like GF binding protein 2 (36 kDa)” value (compared with OVX controls) was 2.7 fold and the “Uterine expression changes: IGFBP 5, latent TGF beta binding protein 1, cysteine-rich angiogenic inducer 61” value (cynomolgus monkey, in vivo) was “only modest changes”. For the same compound, the “Uterine expression of the remaining signal transduction genes examined” value (tamoxifen: except for LDL receptor adaptor protein) was “downregulated”, the “Fold change relative to OVX: ATPase, H+ transporting, lysosomal 38 kda, V0 subunit d isoform 1” value (uterus, OVX monkeys) was 1.2 fold and the “Fold change relative to OVX: ATPase, Na+/K+ transporting, beta 3 polypeptide” value (uterus, OVX monkeys) was 2.1 fold. For the same compound, the “Fold change relative to OVX: Biglycan” value (uterus, OVX monkeys) was 2.0 fold, the “Fold change relative to OVX: CDC28 protein kinase regulatory subunit 2” value (uterus, OVX monkeys) was 3.1 fold and the “Fold change relative to OVX: Cadherin 11, type 2, OB-cadherin (osteoblast)” value (uterus, OVX monkeys) was 3.2 fold. For the same compound, the “Fold change relative to OVX: Calcium channel, voltage-dependent, beta 2 subunit” value (uterus, OVX monkeys) was 0.5 fold, the “Fold change relative to OVX: Catenin (cadherin-associated protein), alpha-like 1” value (uterus, OVX monkeys) was 0.7 fold and the “Fold change relative to OVX: Chitinase 3-like 1 (cartilage glycoprotein-39)” value (uterus, OVX monkeys) was 1.7 fold. For the same compound, the “Fold change relative to OVX: Chloride intracellular channel 4” value (uterus, OVX monkeys) was 1.9 fold, the “Fold change relative to OVX: Chondroitin sulfate proteoglycan 2 (versican)” value (uterus, OVX monkeys) was 2.9 fold and the “Fold change relative to OVX: Collagen, type I, alpha 1” value (uterus, OVX monkeys) was 3.5 fold. For the same compound, the “Fold change relative to OVX: Collagen, type IV, alpha 2” value (uterus, OVX monkeys) was 2.2 fold, the “Fold change relative to OVX: Collagen, type V, alpha 1” value (uterus, OVX monkeys) was 1.3 fold and the “Fold change relative to OVX: Collagen, type VI, alpha 3” value (uterus, OVX monkeys) was 2.0 fold. The “Fold change relative to OVX: Collagen, type VIII, alpha 2” value (uterus, OVX monkeys) was 1.8 fold, the “Fold change relative to OVX: Cyclin D1 (PRAD1: parathyroid adenomatosis 1)” value (uterus, OVX monkeys) was 1.8 fold and the “Fold change relative to OVX: Cysteine-rich, angiogenic inducer, 61” value (uterus, OVX monkeys) was 1.6 fold. For the same compound, the “Fold change relative to OVX: Cytochrome c oxidase subunit via polypeptide 1” value (uterus, OVX monkeys) was 1.3 fold, the “Fold change relative to OVX: Cytochrome c oxidase subunit viia polypeptide 2 (liver)” value (uterus, OVX monkeys) was 1.6 fold and the “Fold change relative to OVX: Dermatopontin” value (uterus, OVX monkeys) was 1.8 fold. The “Fold change relative to OVX: Dishevelled associated activator of morphogenesis 1” value (uterus, OVX monkeys) was 1.2 fold, the “Fold change relative to OVX: Fibroblast growth factor 2 (basic)” value (uterus, OVX monkeys) was 2.0 fold and the “Fold change relative to OVX: Fibulin 1” value (uterus, OVX monkeys) was 1.9 fold. The “Fold change relative to OVX: Four and a half LIM domains 2” value (uterus, OVX monkeys) was 1.7 fold, the “Fold change relative to OVX: G1 to S phase transition 1” value (uterus, OVX monkeys) was 1.6 fold and the “Fold change relative to OVX: Growth associated protein 43” value (uterus, OVX monkeys) was 1.9 fold. The “Fold change relative to OVX: H2A histone family, member Y” value (uterus, OVX monkeys) was 1.7 fold, the “Fold change relative to OVX: Heparan sulfate proteoglycan 2 (perlecan)” value (uterus, OVX monkeys) was 2.2 fold and the “Fold change relative to OVX: Histone H2A.F/Z variant” value (uterus, OVX monkeys) was 1.5 fold. The “Fold change relative to OVX: Insulin-like growth factor binding protein 2, 36 kda” value (uterus, OVX monkeys) was 2.7 fold, the “Fold change relative to OVX: Insulin-like growth factor binding protein 5” value (uterus, OVX monkeys) was 2.0 fold and the “Fold change relative to OVX: Integrin, beta 5” value (uterus, OVX monkeys) was 1.5 fold. The “Fold change relative to OVX: Intercrine-alpha, mrna sequence” value (uterus, OVX monkeys) was 1.5 fold, the “Fold change relative to OVX: LDL receptor adaptor protein” value (uterus, OVX monkeys) was 1.2 fold and the “Fold change relative to OVX: LIM and senescent cell antigen-like domains 1” value (uterus, OVX monkeys) was 2.9 fold. For the same compound, the “Fold change relative to OVX: Laminin, beta 1” value (uterus, OVX monkeys) was 1.4 fold, the “Fold change relative to OVX: Latent transforming growth factor beta binding protein 1” value (uterus, OVX monkeys) was 2.6 fold and the “Fold change relative to OVX: Matrix metalloproteinase 19” value (uterus, OVX monkeys) was 1.6 fold. The “Fold change relative to OVX: Mitogen-activated protein kinase kinase kinase kinase 4” value (uterus, OVX monkeys) was 0.6 fold, the “Fold change relative to OVX: Nidogen (enactin)” value (uterus, OVX monkeys) was 1.9 fold and the “Fold change relative to OVX: Osteoglycin (osteoinductive factor, mimecan)” value (uterus, OVX monkeys) was 1.7 fold. The “Fold change relative to OVX: Peroxiredoxin 1” value (uterus, OVX monkeys) was 1.7 fold, the “Fold change relative to OVX: Phosphatase and tensin homolog (mutated in multiple advanced cancers 1)” value (uterus, OVX monkeys) was 1.6 fold and the “Fold change relative to OVX: Phospholipid transfer protein” value (uterus, OVX monkeys) was 1.4 fold. For the same compound, the “Fold change relative to OVX: Pituitary tumour-transforming 1 interacting protein” value (uterus, OVX monkeys) was 1.9 fold, the “Fold change relative to OVX: Procollagen C-endopeptidase enhancer” value (uterus, OVX monkeys) was 2.3 fold and the “Fold change relative to OVX: Procollagen-proline, 2-oxoglutarate 4-dioxygenase (proline 4-hydroxylase), alpha polypeptide II” value (uterus, OVX monkeys) was 1.6 fold. For the same compound, the “Fold change relative to OVX: Progesterone receptor” value (uterus, OVX monkeys) was 4.5 fold, the “Fold change relative to OVX: Protein tyrosine kinase 9” value (uterus, OVX monkeys) was 1.7 fold and the “Fold change relative to OVX: SET domain, bifurcated 1” value (uterus, OVX monkeys) was 1.9 fold. The “Fold change relative to OVX: SPARC-like 1 (mast9, hevin)” value (uterus, OVX monkeys) was 1.3 fold, the “Fold change relative to OVX: Secreted frizzled-related protein 1” value (uterus, OVX monkeys) was 2.2 fold and the “Fold change relative to OVX: Secreted frizzled-related protein 4” value (uterus, OVX monkeys) was 2.9 fold. For the same compound, the “Fold change relative to OVX: Secreted protein, acidic, cysteine-rich (osteonectin)” value (uterus, OVX monkeys) was 2.2 fold, the “Fold change relative to OVX: Serine (or cysteine) proteinase inhibitor, clade H (heat shock protein 47), member 1, (collagen binding protein 1)” value (uterus, OVX monkeys) was 2.2 fold and the “Fold change relative to OVX: Solute carrier family 22 (organic cation transporter), member 1-like” value (uterus, OVX monkeys) was 1.8 fold. For the same compound, the “Fold change relative to OVX: Solute carrier family 25 (mitochondrial carrier; adenine nucleotide translocator), member 5” value (uterus, OVX monkeys) was 2.2 fold, the “Fold change relative to OVX: Stem cell growth factor; lymphocyte secreted C-type lectin” value (uterus, OVX monkeys) was 1.4 fold and the “Fold change relative to OVX: Tenascin C (hexabrachion)” value (uterus, OVX monkeys) was 3.8 fold. For the same compound, the “Fold change relative to OVX: Testis Enhanced Gene Transcript (Bax Inhibitor 1)” value (uterus, OVX monkeys) was 1.5 fold, the “Fold change relative to OVX: Thioredoxin interacting protein” value (uterus, OVX monkeys) was 0.6 fold and the “Fold change relative to OVX: Transforming growth factor, beta-induced, 68 kda” value (uterus, OVX monkeys) was 2.2 fold. For the same compound, the “Fold change relative to OVX: Ubiquinol-cytochrome c reductase, Rieske iron-sulfur polypeptide 1” value (uterus, OVX monkeys) was 1.4 fold, the “Fold change relative to OVX: Wingless-type MMTV integration site family, member 2B” value (uterus, OVX monkeys) was 1.9 fold and the “Fold change relative to OVX: Wingless-type MMTV integration site family, member 16” value (uterus, OVX monkeys) was 1.1 fold. For the same compound, the “Fold change relative to SHAM control: ATPase, H+ transporting, lysosomal 38 kda, V0 subunit d isoform 1” value (uterus, OVX monkeys) was 1.0 fold, the “Fold change relative to SHAM control: ATPase, Na+/K+ transporting, beta 3 polypeptide” value (uterus, OVX monkeys) was 1.2 fold and the “Fold change relative to SHAM control: Biglycan” value (uterus, OVX monkeys) was 0.7 fold. For the same compound, the “Fold change relative to SHAM control: CDC28 protein kinase regulatory subunit 2” value (uterus, OVX monkeys) was 1.9 fold, the “Fold change relative to SHAM control: Cadherin 11, type 2, OB-cadherin (osteoblast)” value (uterus, OVX monkeys) was 1.9 fold and the “Fold change relative to SHAM control: Calcium channel, voltage-dependent, beta 2 subunit” value (uterus, OVX monkeys) was 0.9 fold. For the same compound, the “Fold change relative to SHAM control: Catenin (cadherin-associated protein), alpha-like 1” value (uterus, OVX monkeys) was 1.5 fold, the “Fold change relative to SHAM control: Chitinase 3-like 1 (cartilage glycoprotein-39)” value (uterus, OVX monkeys) was 1.2 fold and the “Fold change relative to SHAM control: Chloride intracellular channel 4” value (uterus, OVX monkeys) was 1.1 fold. The “Fold change relative to SHAM control: Chondroitin sulfate proteoglycan 2 (versican)” value (uterus, OVX monkeys) was 2.1 fold, the “Fold change relative to SHAM control: Collagen, type I, alpha 1” value (uterus, OVX monkeys) was 1.3 fold and the “Fold change relative to SHAM control: Collagen, type IV, alpha 2” value (uterus, OVX monkeys) was 1.3 fold. The “Fold change relative to SHAM control: Collagen, type V, alpha 1” value (uterus, OVX monkeys) was 0.6 fold, the “Fold change relative to SHAM control: Collagen, type VI, alpha 3” value (uterus, OVX monkeys) was 1.1 fold and the “Fold change relative to SHAM control: Collagen, type VIII, alpha 2” value (uterus, OVX monkeys) was 1.1 fold. The “Fold change relative to SHAM control: Cyclin D1 (PRAD1: parathyroid adenomatosis 1)” value (uterus, OVX monkeys) was 2.0 fold, the “Fold change relative to SHAM control: Cysteine-rich, angiogenic inducer, 61” value (uterus, OVX monkeys) was 0.9 fold and the “Fold change relative to SHAM control: Cytochrome c oxidase subunit via polypeptide 1” value (uterus, OVX monkeys) was 1.2 fold. The “Fold change relative to SHAM control: Cytochrome c oxidase subunit viia polypeptide 2 (liver)” value (uterus, OVX monkeys) was 1.7 fold, the “Fold change relative to SHAM control: Dermatopontin” value (uterus, OVX monkeys) was 1.0 fold and the “Fold change relative to SHAM control: Dishevelled associated activator of morphogenesis 1” value (uterus, OVX monkeys) was 0.8 fold. The “Fold change relative to SHAM control: Fibroblast growth factor 2 (basic)” value (uterus, OVX monkeys) was 1.0 fold, the “Fold change relative to SHAM control: Fibulin 1” value (uterus, OVX monkeys) was 1.1 fold and the “Fold change relative to SHAM control: Four and a half LIM domains 2” value (uterus, OVX monkeys) was 1.1 fold. For the same compound, the “Fold change relative to SHAM control: G1 to S phase transition 1” value (uterus, OVX monkeys) was 1.3 fold.
